Experimental data taken from PubChem BioAssay (NCI).
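Test compounds were applied to cells in 96-well plates for 48 hours at 5 doses. GI50 = concentration required for 50% inhibition of growth. TGI: concentration producing complete growth inhibition.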

Assays:
Assay in all cases: growth of human tumour cells (NCI), 48 h
[1] = test system: NCI/ADR-RES ovarian
[2] = test system: HCT-15 colon
[3] = test system: HL-60(TB) leukemia
[4] = test system: DU-145 prostate
[5] = test system: NCI-H23 lung
[6] = test system: TK-10 renal
[7] = test system: SK-MEL-2 melanoma
[8] = test system: SF-268 CNS
[9] = test system: SK-OV-3 ovarian
[10] = test system: A549 NSCLC
[11] = test system: PC-3 prostate
[12] = test system: HOP-62 NSCLC
[13] = test system: RXF 393 renal
[14] = test system: HCC-2998 colon
[15] = test system: IGROV1 ovarian
[16] = test system: OVCAR-3 ovarian
[17] = test system: UACC-257 melanoma
[18] = test system: NCI-H522 lung
[19] = test system: SR leukemia
[20] = test system: SF-539 CNS
[21] = test system: CAKI-1 renal
[22] = test system: CCRF-CEM leukemia
[23] = test system: KM12 colon
[24] = test system: NCI-H226 lung
[25] = test system: MALME-3M melanoma
[26] = test system: SNB-19 CNS
[27] = test system: OVCAR-5 ovarian
[28] = test system: NCI-H460 lung
[29] = test system: OVCAR-8 ovarian
[30] = test system: OVCAR-4 ovarian
[31] = test system: MCF7 breast
[32] = test system: MOLT-4 leukemia
[33] = test system: M14 melanoma
[34] = test system: SF-295 CNS
[35] = test system: MDA-MB-231 breast
[36] = test system: SW-620 colon
[37] = test system: K-562 leukemia
[38] = test system: SK-MEL-5 melanoma
[39] = test system: HS 578T breast
[40] = test system: COLO 205 colon
[41] = test system: UACC-62 melanoma
[42] = test system: BT-549 breast
[43] = test system: ACHN renal
[44] = test system: UO-31 renal
[45] = test system: SNB-75 CNS
[46] = test system: HCT-116 colon
[47] = test system: RPMI-8226 leukemia
[48] = test system: 786-0 renal
[49] = test system: U251 CNS
[50] = test system: HOP-92 NSCLC
[51] = test system: HT29 colon
[52] = test system: MDA-MB-435
[53] = test system: SK-MEL-28 melanoma
[54] = test system: LOX IMVI melanoma
[55] = test system: SN12C renal
[56] = test system: A498 renal
[57] = test system: EKVX NSCLC

C[C@H](Nc1ccc2c(c1)OCCn1cc(N3C(=O)OC[C@H]3C(F)F)nc1-2)C(N)=O
GI50 [1]: > 69.9 µM
TGI [1]: > 100 µM
GI50 [2]: 0.52 µM
TGI [2]: > 100 µM
GI50 [3]: 0.413 µM
TGI [3]: > 100 µM
GI50 [4]: 20.3 µM
TGI [4]: > 100 µM
GI50 [5]: 38.5 µM
TGI [5]: > 100 µM
GI50 [6]: 0.517 µM
TGI [6]: > 91.2 µM
GI50 [7]: > 100 µM
TGI [7]: > 100 µM
GI50 [8]: 29 µM
TGI [8]: > 100 µM
GI50 [9]: 0.0307 µM
TGI [9]: 0.809 µM
GI50 [10]: 4.82 µM
TGI [10]: > 100 µM
GI50 [11]: 3.81 µM
TGI [11]: > 100 µM
GI50 [12]: 17.5 µM
TGI [12]: > 100 µM
GI50 [13]: 5.56 µM
TGI [13]: 45.8 µM
GI50 [14]: 1.92 µM
TGI [14]: > 100 µM
GI50 [15]: 0.0199 µM
TGI [15]: 0.215 µM
GI50 [16]: 6.26 µM
TGI [16]: > 100 µM
GI50 [17]: 11.5 µM
TGI [17]: > 100 µM
GI50 [18]: > 100 µM
TGI [18]: > 100 µM
GI50 [19]: 38.6 µM
TGI [19]: > 100 µM
GI50 [20]: 3.12 µM
TGI [20]: 43.8 µM
GI50 [21]: 4.88 µM
TGI [21]: > 100 µM
GI50 [22]: 7.93 µM
TGI [22]: > 100 µM
GI50 [23]: 46.9 µM
TGI [23]: > 100 µM
GI50 [24]: > 62 µM
TGI [24]: > 100 µM
GI50 [25]: > 20.7 µM
TGI [25]: > 100 µM
GI50 [26]: 25.3 µM
TGI [26]: > 100 µM
GI50 [27]: 0.421 µM
TGI [27]: > 82.6 µM
GI50 [28]: 1.08 µM
TGI [28]: > 100 µM
GI50 [29]: > 68.3 µM
TGI [29]: > 100 µM
GI50 [30]: 79.4 µM
TGI [30]: > 100 µM
GI50 [31]: 0.0354 µM
TGI [31]: > 100 µM
GI50 [32]: 2.89 µM
TGI [32]: > 100 µM
GI50 [33]: 68.5 µM
TGI [33]: > 100 µM
GI50 [34]: 7.8 µM
TGI [34]: > 100 µM
GI50 [35]: 16.4 µM
TGI [35]: 65.3 µM
GI50 [36]: 20.5 µM
TGI [36]: > 100 µM
GI50 [37]: > 100 µM
TGI [37]: > 100 µM
GI50 [38]: 20.8 µM
TGI [38]: > 100 µM
GI50 [39]: 1.77 µM
TGI [39]: 68.1 µM
GI50 [40]: 2.3 µM
TGI [40]: > 100 µM
GI50 [41]: 3.05 µM
TGI [41]: > 100 µM
GI50 [42]: 5.4 µM
TGI [42]: > 100 µM
GI50 [43]: 5 µM
TGI [43]: > 100 µM
GI50 [44]: 1.57 µM
TGI [44]: > 100 µM
GI50 [45]: 0.0619 µM
TGI [45]: 5.12 µM
GI50 [46]: 17.1 µM
TGI [46]: > 100 µM
GI50 [47]: 31.3 µM
TGI [47]: > 100 µM
GI50 [48]: 9.95 µM
TGI [48]: > 100 µM
GI50 [49]: > 77.6 µM
TGI [49]: > 100 µM
GI50 [50]: 0.183 µM
TGI [50]: 16.4 µM
GI50 [51]: 0.153 µM
TGI [51]: > 100 µM
GI50 [52]: 25.6 µM
TGI [52]: > 100 µM
GI50 [53]: 7.3 µM
TGI [53]: > 100 µM
GI50 [54]: 4.8 µM
TGI [54]: 40.4 µM
GI50 [55]: 13 µM
TGI [55]: > 100 µM
GI50 [56]: 2.09 µM
TGI [56]: 10.2 µM
GI50 [57]: 4.91 µM
TGI [57]: > 100 µM
